Measured values: US4667033A, “Substituted 6-(thien-2-yl)-3(2H)-pyridazinones” (A. Nattermann & Cie GmbH, priority 1983, dated 1987)

Assays:
imipramin-fixation sites = molecular target: T1, imipramin-fixation sites (Rattus norvegicus, UniProt P31652); assay: Inhibition of 3H-Imipramin binding (imipramin-fixation sites); settings: for IC50: log-probit-analysis
T1 construct: from tissue
From the text: (§1) III. Determination of activity to central nervous system.
(§2) The following compounds have been tested for their activity to benzodiazepin-receptors and imipramin-fixation sites in comparison to the known compounds Amitriptylinoxid and Medazepam:
(§3) The determination of their inhibitory activity has been effected corresponding to H. W. Damm et al., Res. Comm. chem. path. Pharmacol. 22, 597-600 (1978) or, respectively, M. Briley et al., Eur. J. Pharmacol. 72, 377-380 (1981). The separation of the bound from the free ligand concentration is effected by filtration. The used ligands Flunitrazepam and Imipramin has been marked by tritium.
(§4) Half maximum inhibitory values have been determined by means of a […]

[1] = system: isolated right-hand atrium; assay: Chronotropic effect in spontaneously pulsing right-hand atrium of guinea pigs; set-up: species or system guinea pig; settings: Cavia porcellus, mean percentage change to starting value, six determinations; for activation at 100 µM: 1 × 10^-4 mol/l, A in 1 × 10^-4 molar citric acid, B in tetraglycol and dilute hydrochloric acid
Experimental: (§5) I. Test to show inotropic effectiveness in the isolated atrium of guinea pigs.
(§6) The measurements have been effected on isolated atria of guinea pigs. The effect to pulse frequency (chronotropy) is determined at the spontaneously pulsing right-hand atrium. The effect to the contractility (inotropy) is determined at the electrically stimulated left-hand atrium. The mean values of the percentage change to the starting value from six different determinations in each test is given hereinafter.

[2] = system: isolated left-hand atrium; assay: Inotropic effectiveness in electrically stimulated left-hand atrium of guinea pigs; set-up: species or system guinea pig; settings: Cavia porcellus, mean percentage change to starting value, six determinations, read-out: Inotropic Effect; for activation at 100 µM: 1 × 10^-4 mol/l, A in 1 × 10^-4 molar citric acid, B in tetraglycol and dilute hydrochloric acid
Experimental: as §5, §6

narcotized cat = assay: Determination of the myocardial effect in the narcotized cat; type: in vivo
From the text: II. Determination of the myocardial effect in the narcotized cat.
10 cats of both sexes are narcotized with chloralose-urethane (0.25% urethane, 0.05% chloralose per kilogram). To ease the spontaneous respiration there was effected a tracheotomy. The following hemodynamic parameters were noted down:
The arteriel systolic and diastolic blood pressure by means of a polyethylene cathether in the right-hand Arteria femoralis registered by means of a Statham element type P23 DB. The pulse frequency was obtained from the blood pressure amplitude and registered by means of a cardiotachometer (type EKA-pulse).
The increase of isovolumetric blood pressure was determined by means of a catheter tip manometer of the type PC 350 A of the Millar Company, USA, introduced to the Arteria carotis communis left-ventricullary and was determined by subsequent differentiation (amplifier of Messrs. Sachs).
The known values have been registered continuously by a Beckmann-Dynograph of the type R. There are given the values in an interval of 2 minutes.
The test animals have been heparinized with 500 I.E. of Liquemin®.
The test compounds are dissolved as follows:
Compound A in 50% glycofurol with heating,
Compound B in 10% glycofurol and 5% HCl with heating.
The test compounds have been administered at consecutively increasing dosages at a volume of 0.1 cc./kg. (Arteria femoralis). The total time of injection was […]. The next dose has been administered only after the complete dying-out of the effect of the previous administration.

benzodiazepin-receptors = assay: Inhibition of 3H-Flunitrazepam binding (benzodiazepin-receptors); settings: for IC50: log-probit-analysis
From the text: as §1, §2, §3, §4

[3] = 1 × 10^-3 mol/l, in tetraglycol and dilute hydrochloric acid

T1 sequence (P31652 whole entry): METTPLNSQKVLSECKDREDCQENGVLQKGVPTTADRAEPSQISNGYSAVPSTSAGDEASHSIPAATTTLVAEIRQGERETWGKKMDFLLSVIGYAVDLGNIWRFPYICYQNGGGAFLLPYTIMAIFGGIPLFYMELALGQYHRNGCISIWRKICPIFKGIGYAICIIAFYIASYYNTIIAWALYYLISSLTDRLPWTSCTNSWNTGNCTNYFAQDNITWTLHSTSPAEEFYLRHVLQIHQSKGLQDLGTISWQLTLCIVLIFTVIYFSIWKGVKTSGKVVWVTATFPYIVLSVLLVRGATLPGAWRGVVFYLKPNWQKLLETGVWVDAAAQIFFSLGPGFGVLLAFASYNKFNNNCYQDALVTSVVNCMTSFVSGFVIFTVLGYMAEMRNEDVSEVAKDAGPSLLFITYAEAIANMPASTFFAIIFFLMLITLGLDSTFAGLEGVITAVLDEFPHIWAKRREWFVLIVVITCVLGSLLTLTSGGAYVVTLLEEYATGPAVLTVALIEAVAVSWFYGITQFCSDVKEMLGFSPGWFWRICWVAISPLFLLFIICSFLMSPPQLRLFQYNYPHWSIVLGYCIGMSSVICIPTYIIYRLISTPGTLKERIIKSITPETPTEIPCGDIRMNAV

C[N+](C)([O-])CCC=C1c2ccccc2CCc2ccccc21 [Amitriptylinoxid, reference compound]
IC50 (imipramin-fixation sites): 24 µM

O=c1ccc(-c2ccc(Cn3ccnc3)s2)n[nH]1 [Compound A, 6-[5-(Imidazol-1-yl-methyl)-thien-2-yl]-3(2H)-pyridazinone]
activation at 100 µM [1]: 19%
activation at 100 µM [2]: 44%
Blood Pressure diast. (narcotized cat; 0.1 mg/kg i.v.): -1%
Blood Pressure syst. (narcotized cat; 0.1 mg/kg i.v.): +1%
Myocardial Contractility (narcotized cat; 0.1 mg/kg i.v.): +24%
Pulse Frequency (narcotized cat; 0.1 mg/kg i.v.): +1%
Blood Pressure diast. (narcotized cat; 0.316 mg/kg i.v.): -6%
Blood Pressure syst. (narcotized cat; 0.316 mg/kg i.v.): 0%
Myocardial Contractility (narcotized cat; 0.316 mg/kg i.v.): +32%
Pulse Frequency (narcotized cat; 0.316 mg/kg i.v.): +1%
Blood Pressure diast. (narcotized cat; 1.0 mg/kg i.v.): -18%
Blood Pressure syst. (narcotized cat; 1.0 mg/kg i.v.): -8%
Myocardial Contractility (narcotized cat; 1.0 mg/kg i.v.): +42%
Pulse Frequency (narcotized cat; 1.0 mg/kg i.v.): -9%
Blood Pressure diast. (narcotized cat; 3.16 mg/kg i.v.): -33%
Blood Pressure syst. (narcotized cat; 3.16 mg/kg i.v.): -19%
Myocardial Contractility (narcotized cat; 3.16 mg/kg i.v.): +51%
Pulse Frequency (narcotized cat; 3.16 mg/kg i.v.): -15%

Nc1cc(-c2ccncc2)c[nH]c1=O [Compound B, 3-Amino-5-(4-pyridyl)-2-pyridone, reference compound]
activation at 1000 µM [1, 3]: 20%
activation at 100 µM [1]: 2%
activation at 1000 µM [2, 3]: 21%
activation at 100 µM [2]: 4%
Blood Pressure diast. (narcotized cat; 0.1 mg/kg i.v.): -3%
Blood Pressure syst. (narcotized cat; 0.1 mg/kg i.v.): -3%
Myocardial Contractility (narcotized cat; 0.1 mg/kg i.v.): +5%
Pulse Frequency (narcotized cat; 0.1 mg/kg i.v.): 0%
Blood Pressure diast. (narcotized cat; 0.316 mg/kg i.v.): -4%
Blood Pressure syst. (narcotized cat; 0.316 mg/kg i.v.): -2%
Myocardial Contractility (narcotized cat; 0.316 mg/kg i.v.): +25%
Pulse Frequency (narcotized cat; 0.316 mg/kg i.v.): +1%
Blood Pressure diast. (narcotized cat; 1.0 mg/kg i.v.): -22%
Blood Pressure syst. (narcotized cat; 1.0 mg/kg i.v.): -15%
Myocardial Contractility (narcotized cat; 1.0 mg/kg i.v.): +40%
Pulse Frequency (narcotized cat; 1.0 mg/kg i.v.): 0%
Blood Pressure diast. (narcotized cat; 3.16 mg/kg i.v.): -51%
Blood Pressure syst. (narcotized cat; 3.16 mg/kg i.v.): -35%
Myocardial Contractility (narcotized cat; 3.16 mg/kg i.v.): +30%
Pulse Frequency (narcotized cat; 3.16 mg/kg i.v.): -20%

Cl.O=c1ccc(-c2ccc(Cn3cccn3)s2)nn1CCN1CCOCC1 [D, 2-(2-Morpholino-ethyl)-6-[5-(pyrazol-1-yl-methyl)-thien-2-yl]-3(2H)-pyridazinon-hydrochloride]
3H-Flunitrazepam % Inhibition (benzodiazepin-receptors; 1 × 10^-4 mole/l): 49%
3H-Flunitrazepam % Inhibition (benzodiazepin-receptors; 1 × 10^-6 mole/l): 2%
IC50 (benzodiazepin-receptors): 60 µM
3H-Imipramin % Inhibition (imipramin-fixation sites; 1 × 10^-4): 87%
3H-Imipramin % Inhibition (imipramin-fixation sites; 1 × 10^-6 mole/l): 34%
IC50 (imipramin-fixation sites): 20 µM

Cl.O=c1ccc(-c2ccc(Cn3ccnc3)s2)nn1CCN1CCOCC1 [E, 6-[5-(Imidazol-1-yl-methyl)-thien-2-yl]-2-(2-morpholino-ethyl)-3(2H)-pyridazinon-hydrochloride]
3H-Flunitrazepam % Inhibition (benzodiazepin-receptors; 1 × 10^-4 mole/l): 74%
3H-Flunitrazepam % Inhibition (benzodiazepin-receptors; 1 × 10^-6 mole/l): 19%
IC50 (benzodiazepin-receptors): 9 µM
3H-Imipramin % Inhibition (imipramin-fixation sites; 1 × 10^-4): 40%
3H-Imipramin % Inhibition (imipramin-fixation sites; 1 × 10^-6 mole/l): 4%

Cl.O=c1ccc(-c2ccc(Cn3ccnc3)s2)nn1CCN1CCCCC1 [F, 6-[5-(Imidazol-1-yl-methyl)-thien-2-yl]-2-(2-piperidino-ethyl)-3(2H)-pyridazinon-hydrochloride]
3H-Flunitrazepam % Inhibition (benzodiazepin-receptors; 1 × 10^-4 mole/l): 66%
3H-Flunitrazepam % Inhibition (benzodiazepin-receptors; 1 × 10^-6 mole/l): 12%
IC50 (benzodiazepin-receptors): 90 µM
3H-Imipramin % Inhibition (imipramin-fixation sites; 1 × 10^-4): 62%
3H-Imipramin % Inhibition (imipramin-fixation sites; 1 × 10^-6 mole/l): 7%
IC50 (imipramin-fixation sites): 7 µM

Cl.O=c1ccc(-c2ccc(Cn3ccnc3)s2)nn1CCCN1CCCCC1 [G, 6-[5-(Imidazol-1-yl-methyl)-thien-2-yl]-2-(3-piperidino-propyl)-3(2H)-pyridazinon-hydrochloride]
3H-Flunitrazepam % Inhibition (benzodiazepin-receptors; 1 × 10^-4 mole/l): 40%
3H-Flunitrazepam % Inhibition (benzodiazepin-receptors; 1 × 10^-6 mole/l): 4%
3H-Imipramin % Inhibition (imipramin-fixation sites; 1 × 10^-4): 86%
3H-Imipramin % Inhibition (imipramin-fixation sites; 1 × 10^-6 mole/l): 27%
IC50 (imipramin-fixation sites): 3 µM

Cc1cc(-c2ccccc2)nn(CCN2CCOCC2)c1=O.Cl [H, 4-Methyl-2-(2-morpholino-ethyl)-6-phenyl-3(2H)-pyridazinon-hydrochloride, reference compound]
3H-Flunitrazepam % Inhibition (benzodiazepin-receptors; 1 × 10^-4 mole/l): 14%
3H-Flunitrazepam % Inhibition (benzodiazepin-receptors; 1 × 10^-6 mole/l): 0%
3H-Imipramin % Inhibition (imipramin-fixation sites; 1 × 10^-4): 36%
3H-Imipramin % Inhibition (imipramin-fixation sites; 1 × 10^-6 mole/l): 8%

CN1CCN=C(c2ccccc2)c2cc(Cl)ccc21 [Medazepam, reference compound]
IC50 (benzodiazepin-receptors): 3.9 µM
